Source: patent publication EP0414895A1, “OROTATE OF $g(a)-AMINO-$g(b)-PHENYL-BUTYRIC ACID” (NAUCHNO-PROIZVODSTVENNOE OBIEDINENIE "BIOLAR", priority 1989, dated 1990)

Experiments:
Format in all cases: in vivo
Mäuse [1] = experiment: Hypoxia in barochamber (11000 m), survival
Description: Nach einer der Methoden wurden die Mäuse in der Barokammer untergebracht, die für die Höhe von II000 m über dem Meeresspiegel gehoben wurde. Die Hebung wurde mit einer Geschwindigkeit von 50 m/s verwirklicht. Der atmosphärische Tiefdruck wurde mit Hilfe der elektrischen Vakuumpumpe geschaffen.
Die beanspruchte Verbindung, Natriumoxybutyrat und Pyrazetam wurden 60 min vor dem Versuch enteral eingeführt. Der Schutzeffekt wurde nach der Überlebensdauer eingeschätzt. Die Angaben sind in Tabelle I0 angeführt.

Mäuse [2] = experiment: Hemic hypoxia by intraperitoneal Natriumnitrit, survival; details: Natriumnitrit 200 mg/kg i.p. 15 min after compound
Description: Die gemische Hypoxie wurde durch die intraperitoneale und subkutane Verabreichung von Natriumnitrit in einer Dosis von 200 mg/kg den Gruppen zu I0 […] I5 min nach der Einführung der Prüfverbindungen erzeugt. Die Angaben sind in der Tabelle I2 (bei der intraperitonealen Einführung von Natriumnitrit) und Tabelle I3 (bei der subkutanen Einführung von Natriumnitrit) angeführt.

Mäuse [3] = experiment: Motor and orientation activity in photoelectric actometer; details: counted 60 min from 10 min after dosing
From the text: Zur Bestimmung der sedativen Wirksamkeit wurde die motorische und Orientierungsaktivität und die motorische Fähigkeit in Versuchen an Mäusen und Ratten untersucht.
Den Versuchstieren wurden die beanspruchte Verbindung, γ -Amino- β -phenylbuttersäurehydrochlorid und Pyrazetam eingeführt. Als Kontrolle diente die physiologische Lösung (0,9%ige NaCl-Lösung). Die Untersuchungen wurden an I0 bis I2 erwachsenen Tieren (Mäuse, Ratten) durchgeführt.
Bei der Bestimmung der motorischen und Orientierungsaktivität wurde jede Maus in einer Einzelkamner des photoelektrischen Aktometers untergebracht. Die motorische und Orientierungsaktivität wurde nach der Zahl der Impulse bestimmt, die beim Berühren der Aktometerkontakte durch das Tier entstanden. Das Zählen der Im pulse wurde I0 min nach der intraperitonealen Einführung der genannten Verbindungen begonnen und dauerte innerhalb von 60 min. Die Angaben sind in der Tabelle I angeführt.

Mäuse [4] = experiment: Thresholds of emotional reactivity and aggressiveness on electric pain stimulation, mice
From the text: Es wurde auch die emotionelle Aktivität und Aggressivität der Tiere auf dem Wege der elektrischen Schmerzreizung untersucht.
In einer Kammer von 20 x 20 x 25 cm Ausmass, deren Boden - ein Metallgitter aus Stangen darstellt, wurde ein Paar Tiere untergebracht (männliche Mäuse) und es wurde der Wechselstrom durchgelassen. Die Spannung wurde dosenartig auf 5 V solange erhöht, bis der Strom das Piepsen (die Schwelle der emotionellen Reaktivität) und die Schlägerei der Tiere (die Schwelle der Aggressivität) auslöste. Jede Spannungsgrösse wurde innerhalb von 5 sec zweimal in einem Zeitabstand von 20 bis 50 Sekunden aufrechterhalten. Die Kontrolle des Benehmens der Tiere begann man I0 Minuten nach der Einführung der oben erwähnten Verbindungen. Die Angaben sind in Tabellen 3, 4 angeführt.

Ratten [5] = experiment: Thresholds of emotional reactivity and aggressiveness on electric pain stimulation, rats; details: 100,0 mg/kg
Mäuse [6] = experiment: Phenamin-induced hypermotility in actometer; details: 500 mg/kg + Phenamin 5 mg/kg i.p. 10 min later
Description: Eis wurde die Wirkung der beanspruchten Verbindung auf den durch Phenamin ausgelöston Effekt der Veränderung der Hypermotorik untersucht. Phenamin wurde den Mäusen intraperitoneal in Dosen von 3 und 5 mg/kg I0 Minuten nach der enteralen oder intraperitonealen Einführung der beanspruchten Verbindung und des Pyrazetams eingeführt. Die Tiere wurden in der Kammer des photoelektrischen Aktometers untergebracht. Die motorische Aktivität wurde nach der Zahl der Impulse innerhalb von 60 Minuten bestimmt. Die Angaben sind in der Tabelle 6 angeführt.

Mäuse [7] = experiment: Hypoxia in hermetically closed vessel, survival; details: closed vessel 80 cm³
From the text: Nach der zweiten Methode wurden die Mäuse in einem hermetisch verschlossenen Gefäss von 80 cm³ Inhalt untergebracht, dabei wurde die Luft nicht abgesaugt, und es wurden keine CO₂-Sorptionsmittel zugegeben. Die Prüfverbindungen wurden I Stunde vor dem Beginn des Versuchs intraperitoneal eingeführt (siehe Tabelle II).

Ratten [8] = experiment: Natriumäthaminal intoxication, sleep duration, rats; details: 500 mg/kg single + Natriumäthaminal 100 mg/kg i.p.
Description: Ausserdem wurde die Wirkung der beanspruchten Verbindung auf die durch Natriumäthaminal erzeugte Intoxikation untersucht. Die Versuche wurden an männlichen Mäusen und Ratten in Gruppen zu 8 bis I0 Tieren angestellt. Natriumäthaminal wurde intraperitoneal in einner Dosis von I00 mg/kg I5 min nach der enteralen Verabreichung der beanspruchten Verbindung oder der Kontrollarzneimittel eingeführt. Es wurde die einmalige und chronische Einwirkung (während I2 bis I4 Tage einmal täglich) von der neuen Verbindung, γ -Amino- β - -phenylbuttersäurehydrochlorid und Pyrazetam untersucht. Es wurde die Dauer der Seitenlage - des Schlafs der Tiere bestimmt. Die Ergebnisse dieser Untersuchung sind in Tabelle 23 (für Mäuse) und 24 (für Ratten) angeführt.

[9] = 100,0 mg/kg enteral 60 min before

## O=C(O)CCCO [Natriumoxybutyrat]
Mäuse [1]; [9]
  Überlebensdauer: 7,1±2,3 min
Mäuse [1]; 200,0 mg/kg enteral 60 min before
  Überlebensdauer: 10,1±1,9 min
Mäuse [2]; 100,0 mg/kg
  Überlebensdauer: 28,4±2,8 min
Mäuse [2]; 200,0 mg/kg
  Überlebensdauer: 43,0±2,3 min

## NC(=O)CN1CCCC1=O [Pyrazetam, I-Karbamidomethylpyrrolidon-2]
Mäuse [3]; 100 mg/kg i.p.
  Anzahl der Impulse im Aktometer: 342±18
Mäuse [3]; 500 mg/kg i.p.
  Anzahl der Impulse im Aktometer: 338±24
Mäuse [3]; 1000 mg/kg i.p.
  Anzahl der Impulse im Aktometer: 288±28
Mäuse [4]; 100 mg/kg
  Spannung in V, Schwelle der Agressivität: 28,4±2,4 V
Mäuse [4]; 1000 mg/kg
  Spannung in V, Schwelle der Agressivität: 26,7±2,5 V
  Spannung in V, Schwelle der emotionellen Reaktivität: 20,7±2,4 V
Ratten [5]
  Spannung in V, die Schwelle der emotionnellen Reaktivität: 25,7±0,8 V
Mäuse [6]
  Anzahl der Impulse im Aktometer innerhalb von 60 min: 1872±66
Mäuse [1]; [9]
  Überlebensdauer: 3,4±0,6 min
Mäuse [1]; 500,0 mg/kg enteral 60 min before
  Überlebensdauer: 5,5±1,8 min
Mäuse [1]; 1000,0 mg/kg enteral 60 min before
  Überlebensdauer: 7,2±1,4 min
Mäuse [7]; 100,0 mg/kg i.p. 1 h before
  Überlebensdauer: 9,6±1,2 min
Mäuse [7]; 500,0 mg/kg i.p. 1 h before
  Überlebensdauer: 11,8±2,1 min
Mäuse [7]; 1000,0 mg/kg i.p. 1 h before
  Überlebensdauer: 13,6±1,8 min
Mäuse [2]; 100,0 mg/kg
  Überlebensdauer: 26,7±2,2 min
Mäuse [2]; 500,0 mg/kg
  Überlebensdauer: 34,2±3,6 min
Mäuse [2]; 1000,0 mg/kg
  Überlebensdauer: 38,8±4,2 min
Ratten [8]
  Schlafdauer: 204,6±21 min
